Key:
Type in all cases: in vivo
[1] = test system: barnyardgrass (Echinochloa crus-galli); experiment: Test A preemergence barnyardgrass; conditions: 0 to 100 scale; for Barnyardgrass plant response rating: 125 g ai/ha, 0 no effect, 100 complete control; for Plant response rating, Barnyardgrass: 500 g ai/ha, 0 is no effect, 100 is complete control
How it was run: (§1)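 Plants were grown in a blend of loam soil and sand. For preemergence testing the soil was sprayed directly after seeding, while postemergence testing used seedlings 2–10 cm high at one to two leaves; all treatments were rated visually for injury (0–100) after ~10 d.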

[2] = test system: barnyardgrass (Echinochloa crus-galli); experiment: Test A postemergence barnyardgrass; conditions: 0 to 100 scale, 0 is no effect, 100 is complete control
How it was run: as §1

[3] = test system: sedge, umbrella (small-flower umbrella sedge, Cyperus difformis); experiment: Test B flooded paddy test sedge, umbrella; conditions: Table B, Flood, 250 g ai/ha, scale 0 to 100
How it was run: (§2)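 Plants at 2-leaf stage in pots flooded 3 cm above soil; compounds applied directly into paddy water, depth kept throughout.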

[4] = test system: velvetleaf (Abutilon theophrasti); experiment: Test A postemergence velvetleaf; conditions: 0 to 100 scale, 0 is no effect, 100 is complete control
From the text: (§3) Seeds of plant species selected from barnyardgrass (Echinochloa crus-galli), kochia (Kochia scoparia), ragweed (common ragweed, Ambrosia elatior), ryegrass, Italian (Italian ryegrass, Lolium multiflorum), crabgrass, large (large crabgrass, Digitaria sanguinalis), foxtail, giant (giant foxtail, Setaria faberii), morningglory (Ipomoea spp.), pigweed (Amaranthus retroflexus), velvetleaf (Abutilon theophrasti), wheat (Triticum aestivum), and corn (Zea mays) were planted into a blend of loam soil and sand and treated preemergence with a directed soil spray using test chemicals formulated in a non-phytotoxic solvent mixture which included a surfactant.
(§4) At the same time, plants selected from these crop and weed species and also blackgrass (Alopecurus myosuroides), and galium (catchweed bedstraw, Galium aparine) were planted in pots containing the same blend of loam soil and sand and treated with postemergence applications of test chemicals formulated in the same manner. Plants ranged in height from 2 to 10 cm and were in the one- to two-leaf stage for the postemergence treatment. Treated plants and untreated controls were maintained in a greenhouse for approximately 10 d, after which time all treated plants were compared to untreated controls and visually evaluated for injury. Plant response ratings, summarized in Table A, are based on a 0 to 100 scale where 0 is no effect and 100 is complete control. A dash (-) response means no test result.

[5] = test system: morningglory (Ipomoea spp.); experiment: Test A postemergence morningglory; conditions: 0 to 100 scale, 0 is no effect, 100 is complete control
From the text: as §3, §4

[6] = test system: pigweed (Amaranthus retroflexus); experiment: Test A postemergence pigweed; conditions: 0 to 100 scale, 0 is no effect, 100 is complete control
How it was run: as §1

corn (Zea mays) [7] = experiment: Test A postemergence corn; conditions: 0 to 100 scale, 0 is no effect, 100 is complete control
How it was run: as §1

[8] = test system: ducksalad (Heteranthera limosa); experiment: Test B flooded paddy test ducksalad; conditions: Table B, Flood, 250 g ai/ha, scale 0 to 100
How it was run: as §2

[9] = test system: morningglory (Ipomoea spp.); experiment: Test A preemergence morningglory; conditions: 0 to 100 scale, 0 no effect, 100 complete control
From the text: as §3, §4

[10] = test system: foxtail, giant (giant foxtail, Setaria faberii); experiment: Test A postemergence foxtail, giant; conditions: 0 to 100 scale, 0 is no effect, 100 is complete control
How it was run: as §1

[11] = test system: wheat (Triticum aestivum); experiment: Test A preemergence wheat; conditions: 0 to 100 scale, 0 no effect, 100 complete control
From the text: as §3, §4

[12] = test system: pigweed (Amaranthus retroflexus); experiment: Test A preemergence pigweed; conditions: 0 to 100 scale, 0 no effect, 100 complete control
How it was run: as §1

corn (Zea mays) [13] = experiment: Test A preemergence corn; conditions: 0 to 100 scale; for Corn plant response rating: 125 g ai/ha, 0 no effect, 100 complete control; for Plant response rating, Corn: 500 g ai/ha, 0 is no effect, 100 is complete control
From the text: as §3, §4

[14] = test system: barnyardgrass (Echinochloa crus-galli); experiment: Test B flooded paddy test barnyardgrass; conditions: Table B, Flood, 250 g ai/ha, scale 0 to 100
How it was run: as §2

rice (Oryza sativa) = experiment: Test B flooded paddy test rice; conditions: Table B, Flood, 250 g ai/ha, scale 0 to 100
How it was run: as §2

[15] = test system: crabgrass, large (large crabgrass, Digitaria sanguinalis); experiment: Test A postemergence crabgrass, large; conditions: 0 to 100 scale, 0 is no effect, 100 is complete control
From the text: as §3, §4

[16] = test system: wheat (Triticum aestivum); experiment: Test A postemergence wheat; conditions: 0 to 100 scale, 0 is no effect, 100 is complete control
How it was run: as §1

[17] = test system: crabgrass, large (large crabgrass, Digitaria sanguinalis); experiment: Test A preemergence crabgrass, large; conditions: 0 to 100 scale; for Crabgrass, Large plant response rating: 125 g ai/ha, 0 no effect, 100 complete control; for Plant response rating, Crabgrass, Large: 500 g ai/ha, 0 is no effect, 100 is complete control
From the text: as §3, §4

[18] = test system: foxtail, giant (giant foxtail, Setaria faberii); experiment: Test A preemergence foxtail, giant; conditions: 0 to 100 scale, 0 no effect, 100 complete control
How it was run: as §1

[19] = test system: velvetleaf (Abutilon theophrasti); experiment: Test A preemergence velvetleaf; conditions: 0 to 100 scale, 0 no effect, 100 complete control
From the text: as §3, §4

SMILES | Barnyardgrass plant response rating [1] | Plant response rating, Barnyardgrass [1] | Plant response rating, Barnyardgrass ([2]; 125 g ai/ha) | Plant response rating, Barnyardgrass ([2]; 500 g ai/ha) | Plant response rating [3] | Plant response rating, Velvetleaf ([4]; 125 g ai/ha) | Plant response rating, Velvetleaf ([4]; 500 g ai/ha) | Plant response rating, Morningglory ([5]; 125 g ai/ha) | Plant response rating, Morningglory ([5]; 500 g ai/ha) | Plant response rating, Pigweed ([6]; 125 g ai/ha) | Plant response rating, Pigweed ([6]; 500 g ai/ha) | Plant response rating, Corn (corn (Zea mays) [7]; 125 g ai/ha) | Plant response rating, Corn (corn (Zea mays) [7]; 500 g ai/ha) | Plant response rating [8] | Morningglory plant response rating ([9]; 125 g ai/ha) | Morningglory plant response rating ([9]; 500 g ai/ha) | Plant response rating, Foxtail, Giant ([10]; 125 g ai/ha) | Plant response rating, Foxtail, Giant ([10]; 500 g ai/ha) | Wheat plant response rating ([11]; 125 g ai/ha) | Wheat plant response rating ([11]; 500 g ai/ha) | further results
O=C1NCCC(c2ccc(F)c(F)c2)C1C(=O)Nc1ccccc1F (racemic) [Compound 1] | 0 | 70 | 0 | 50 | 0 | 0 | 0 | 0 | 0 | 0 | 0 | 0 | 0 | 0 | 0 | 0 | 0 | 0 | 0 | 0 | Pigweed plant response rating ([12]; 125 g ai/ha): 0; Pigweed plant response rating ([12]; 500 g ai/ha): 0; Corn plant response rating (corn (Zea mays) [13]): 0; Plant response rating, Corn (corn (Zea mays) [13]): 0; Plant response rating [14]: 0; Plant response rating (rice (Oryza sativa)): 0; Plant response rating, Crabgrass, Large ([15]; 125 g ai/ha): 30; Plant response rating, Crabgrass, Large ([15]; 500 g ai/ha): 70; Plant response rating, Wheat ([16]; 125 g ai/ha): 0; Plant response rating, Wheat ([16]; 500 g ai/ha): 0; Crabgrass, Large plant response rating [17]: 80; Plant response rating, Crabgrass, Large [17]: 90; Foxtail, Giant plant response rating ([18]; 125 g ai/ha): 30; Foxtail, Giant plant response rating ([18]; 500 g ai/ha): 90; Velvetleaf plant response rating ([19]; 125 g ai/ha): 0; Velvetleaf plant response rating ([19]; 500 g ai/ha): 0
O=C1NCCC(c2ccccc2)C1C(=O)Nc1ccccc1C(F)(F)F (racemic) [Compound 2] | 0 | 20 | 0 | 0 | 0 | 0 | 0 | 0 | 0 | 0 | 0 | 0 | 0 | 0 | 0 | 0 | 0 | 0 | 0 | 0 | Pigweed plant response rating ([12]; 125 g ai/ha): 0; Pigweed plant response rating ([12]; 500 g ai/ha): 0; Corn plant response rating (corn (Zea mays) [13]): 0; Plant response rating, Corn (corn (Zea mays) [13]): 0; Plant response rating [14]: 0; Plant response rating (rice (Oryza sativa)): 0; Plant response rating, Crabgrass, Large ([15]; 125 g ai/ha): 0; Plant response rating, Crabgrass, Large ([15]; 500 g ai/ha): 10; Plant response rating, Wheat ([16]; 125 g ai/ha): 0; Plant response rating, Wheat ([16]; 500 g ai/ha): 0; Crabgrass, Large plant response rating [17]: 70; Plant response rating, Crabgrass, Large [17]: 90; Foxtail, Giant plant response rating ([18]; 125 g ai/ha): 10; Foxtail, Giant plant response rating ([18]; 500 g ai/ha): 70; Velvetleaf plant response rating ([19]; 125 g ai/ha): 0; Velvetleaf plant response rating ([19]; 500 g ai/ha): 0
O=C1NCCC(c2ccccc2)C1C(=O)Nc1ccccc1F (racemic) [Compound 3] | 0 | 0 | 0 | 0 | 0 | 0 | 0 | 0 | 0 | 0 | 0 | 0 | 0 | 0 | 0 | 0 | 0 | 0 | 0 | 20 | Pigweed plant response rating ([12]; 125 g ai/ha): 0; Pigweed plant response rating ([12]; 500 g ai/ha): 0; Corn plant response rating (corn (Zea mays) [13]): 0; Plant response rating, Corn (corn (Zea mays) [13]): 0; Plant response rating [14]: 0; Plant response rating (rice (Oryza sativa)): 0; Plant response rating, Crabgrass, Large ([15]; 125 g ai/ha): 0; Plant response rating, Crabgrass, Large ([15]; 500 g ai/ha): 0; Plant response rating, Wheat ([16]; 125 g ai/ha): 0; Plant response rating, Wheat ([16]; 500 g ai/ha): 0; Crabgrass, Large plant response rating [17]: 0; Plant response rating, Crabgrass, Large [17]: 30; Foxtail, Giant plant response rating ([18]; 125 g ai/ha): 0; Foxtail, Giant plant response rating ([18]; 500 g ai/ha): 0; Velvetleaf plant response rating ([19]; 125 g ai/ha): 0; Velvetleaf plant response rating ([19]; 500 g ai/ha): 0
O=C1NCCC(c2ccc(F)cc2)C1C(=O)Nc1ccccc1C(F)(F)F (racemic) [Compound 4] | 0 | 50 | 0 | 20 | 0 | 0 | 0 | 0 | 0 | 0 | 0 | 0 | 0 | 0 | 0 | 0 | 0 | 0 | 0 | 0 | Pigweed plant response rating ([12]; 125 g ai/ha): 0; Pigweed plant response rating ([12]; 500 g ai/ha): 0; Corn plant response rating (corn (Zea mays) [13]): 0; Plant response rating, Corn (corn (Zea mays) [13]): 0; Plant response rating [14]: 0; Plant response rating (rice (Oryza sativa)): 0; Plant response rating, Crabgrass, Large ([15]; 125 g ai/ha): 40; Plant response rating, Crabgrass, Large ([15]; 500 g ai/ha): 70; Plant response rating, Wheat ([16]; 125 g ai/ha): 0; Plant response rating, Wheat ([16]; 500 g ai/ha): 0; Crabgrass, Large plant response rating [17]: 90; Plant response rating, Crabgrass, Large [17]: 90; Foxtail, Giant plant response rating ([18]; 125 g ai/ha): 10; Foxtail, Giant plant response rating ([18]; 500 g ai/ha): 70; Velvetleaf plant response rating ([19]; 125 g ai/ha): 0; Velvetleaf plant response rating ([19]; 500 g ai/ha): 0
O=C1NCCC(c2ccc(F)cc2)C1C(=O)Nc1ccccc1F (racemic) [Compound 5] | 0 | 30 | 0 | 30 | 0 | 0 | 0 | 0 | 0 | 0 | 0 | 0 | 0 | 0 | 0 | 0 | 0 | 0 | 0 | 0 | Pigweed plant response rating ([12]; 125 g ai/ha): 0; Pigweed plant response rating ([12]; 500 g ai/ha): 0; Corn plant response rating (corn (Zea mays) [13]): 0; Plant response rating, Corn (corn (Zea mays) [13]): 0; Plant response rating [14]: 0; Plant response rating (rice (Oryza sativa)): 0; Plant response rating, Crabgrass, Large ([15]; 125 g ai/ha): 0; Plant response rating, Crabgrass, Large ([15]; 500 g ai/ha): 0; Plant response rating, Wheat ([16]; 125 g ai/ha): 0; Plant response rating, Wheat ([16]; 500 g ai/ha): 0; Crabgrass, Large plant response rating [17]: 60; Plant response rating, Crabgrass, Large [17]: 90; Foxtail, Giant plant response rating ([18]; 125 g ai/ha): 30; Foxtail, Giant plant response rating ([18]; 500 g ai/ha): 50; Velvetleaf plant response rating ([19]; 125 g ai/ha): 0; Velvetleaf plant response rating ([19]; 500 g ai/ha): 0
